Test results from patent EP4763837A1, “PHOTOCHROMIC COMPOUND, CURABLE COMPOSITION, OPTICAL ARTICLE, LENS, AND EYEGLASSES” (TOKUYAMA CORPORATION, priority 2023, dated 2025).
“And” between values parts separate entries of the source, which are not always exact repeats. Identical values can stand only once.

Experiments:
Type in all cases: physicochemical
[1] = Photochromic property of binder sheet (photochromic layer made by binder method); settings: for Residual ratio: A96/A0 x 100 after 96 hours accelerated degradation, xenon weather meter X25; for Color developing density at 23°C: absorbance difference after 240 seconds irradiation at the maximum absorption wavelength of the same line
Description: (§1) The resulting photochromic laminates were evaluated by the below-mentioned methods. • (1) Photochromic property • [1] Maximum absorption wavelength (λmax): This is the maximum absorption wavelength after color development determined by a spectrophotometer manufactured by Otsuka Electronics Co., Ltd. (instantaneous multichannel photo detector MCPD3000) and was used as an index of a color tone upon color development. • [2] Color developing density at 23°C (A23): This is a difference between an absorbance {ε(240)} after irradiation with light at 23°C for 240 seconds and an absorbance ε(0) when not irradiated with light at the maximum absorption wavelength and was used as an index of a color developing density. The higher this value is, the better a photochromic property is. • [3] Color fading half-life at 23°C [τ1/2 (sec).)]: This is a period of time taken by an absorbance at the maximum absorption wavelength of a sample to decrease to 1/2 of {ε(240)-ε(0)} when irradiation is stopped after irradiation with light at 23°C for 240 seconds, and was used as an index of a color fading rate. The shorter this period of time is, the faster the color fading rate is. • [4] Residual ratio (A96/A0 x 100): The resulting photochromic plastic lens was subjected to accelerated degradation for 96 hours using a xenon weather meter X25 manufactured by Suga Test Instruments Co., Ltd. Color developing densities were then evaluated before and after a test, and a color developing density before the test (A0) and a color developing density after the test (A96) were measured. A ratio (A96/A0) was determined as a residual ratio and was used as an index of color development durability. The higher the residual ratio is, the more durable the color development is.
A binder sheet was produced as follows. The binder sheet was made by laminating a first optical sheet, a first adhesive layer, a photochromic layer, a second adhesive layer, and a second optical sheet in this order. A polycarbonate sheet with a thickness of 400 µm was used as the first optical sheet and the second optical sheet.
A 2 L four-necked flask equipped with a stirring blade, a condense tube, a thermometer, and a nitrogen gas inlet tube was charged with 315 parts by mass of polycarbonate diol with a number average molecular weight of 1000, 100 parts by mass of isophorone diisocyanate, and 72 parts by mass of toluene and reacted under a nitrogen atmosphere at 100°C for 7 hours. Thus, a urethane prepolymer with a terminal isocyanate group was synthesized. After the reaction of the above-mentioned urethane prepolymer was completed, the resulting reaction liquid was cooled to about 0°C and dissolved in 205 parts by mass of tertiary-butyl alcohol and 382 parts by mass of diethyl ketone, and then a temperature of the resulting liquid was kept at 0°C. Next, a mixed solution of 21.3 parts by mass of bis-(4-aminocyclohexyl)methane serving as a chain extender and 20 parts by mass of diethyl ketone was added dropwise thereto within 30 minutes and reacted at 0°C for 1 hour. Then, 8.1 parts by mass of 1,2,2,6,6-pentamethyl-4-aminopiperidine was added dropwise thereto and reacted at 0°C for 1 hour to obtain a solution of a terminal non-reactive urethane urea resin in diethylketone.
One hundred parts by mass of the resulting solution of a terminal non-reactive urethane urea resin, 6.3 parts by mass of Example 1 (a photochromic compound represented by Formula (1-7), an isomer mixture of 4,4'-methylenebis(cyclohexylisocyanate) (polyisocyanate compound)), 0.4 parts by mass of ethylenebis(oxyethylene) bis[3-(5-tert-butyl-4-hydroxy-m-tolyl) propionate] serving as an antioxidant, and 0.06 parts by mass of L-7001 manufactured by DuPont Toray Specialty Materials K.K. serving as a surfactant were added and stirred and mixed at room temperature to obtain a composition for forming a photochromic layer. […]

[2] = Photochromic property of photochromic cured product made by kneading method; settings: for Residual ratio: A96/A0 x 100 after 96 hours accelerated degradation, xenon weather meter X25; for Color developing density at 23°C: absorbance difference after 240 seconds irradiation at the maximum absorption wavelength of the same line
Description: as §1
First, the photochromic compound obtained in Example 1, an additive, and a polymerizable compound were mixed to obtain a curable composition. The polymerizable compound was a combination of the following polymerizable monomers: • · 1,3-Bis(isocyanatomethyl)cyclohexane: 36.7 parts by mass • · Pentaerythritol tetrakis(3-mercaptopropionate): 39.4 parts by mass • · Polyoxyethylene polyoxypropylene lauryl ether (WONDERSURF 140 manufactured by AOKI OIL INDUSTRIAL Co., Ltd.): 17.4 parts by mass • · 1-Decanethiol: 2.8 parts by mass • · RX-1 prepared by the method described in Patent Document 14: 3.8 parts by mass
Note that, in the curable composition, the photochromic compound was added in an amount of 0.106 mmol taking a total amount of the polymerizable monomers as 100 g.
The following additives were used: • · Dimethyltin dichloride: 0.05 parts by mass • · Irganox 245: 0.1 parts by mass • · 2-Ethylhexyl […]: 0.6 parts by mass
After the thus-prepared curable composition was thoroughly defoamed, it was poured into a glass mold with a gap of 1 mm and polymerized by casting polymerization. […] After the polymerization, the resulting cured product was removed from the glass mold to obtain a photochromic cured product with a thickness of 1 mm. The resulting photochromic cured product was evaluated in the same manner as for Example 23.
Photochromic cured products were produced using the photochromic compounds shown in Table 4 in the same manner as in Example 50.

[3] = Photochromic property of photochromic laminate made by coating method; settings: for Residual ratio: laminate by coating method, A96/A0 x 100 after 96 hours accelerated degradation, xenon weather meter X25
Description: First, the photochromic compound obtained in Example 1, a photoinitiator, and a polymerizable compound were mixed to obtain a curable composition.
The polymerizable compound was a combination of the following radical polymerizable monomers:
Polyethylene glycol dimethacrylate (average molecular weight: 736): 42 parts by mass • Polyethylene glycol dimethacrylate (average molecular weight: 536): 12 parts by mass • Trimethylolpropane methacrylate: 38 parts by mass γ-Methacryloyloxypropyltrimethoxysilane: 2 parts by mass Glycidyl methacrylate: 1 part by mass.
Note that, in the curable composition, the photochromic compound was added in an amount of 0.25 mmol taking a total amount of the radical polymerizable monomers as 100 g.
Phenylbis(2,4,6-trimethylbenzoyl)phosphine oxide (photoinitiator: Omnirad 819): 0.3 parts by mass Ethylene bis(oxyethylene) bis[3-(5-tert-butyl-4-hydroxy-m-tolyl) propionate] (stabilizer, Irganox 245): 1 part by mass Bis(1,2,2,6,6-pentamethyl-4-piperidyl)sebacate: 3 parts by mass Leveling agent (L-7001) manufactured by DuPont Toray Specialty Materials K.K.: 0.1 parts by mass.
Using this curable composition, a photochromic laminate was obtained by a lamination method including polymerization as follows.
First, a thiourethane plastic lens with a center thickness of 2 mm and a refractive index of 1.60 was prepared as an optical substrate. Note that, the thiourethane plastic lens had been alkaline-etched in a 10% sodium hydroxide aqueous solution at 50°C for 5 minutes in advance, and then thoroughly washed with distilled water.
A spin coater (1H-DX2, manufactured by MIKASA CO., LTD) was used to coat a surface of the above-mentioned plastic lens with a moisture-curing primer (product name: TR-SC-P, manufactured by Tokuyama Corporation) at a rotation speed of 70 rpm for 15 seconds, followed by 1000 rpm for 10 seconds. Then, about 2 g of the photochromic curable composition obtained above was spin-coated at a rotation speed of 60 rpm for 40 seconds, followed by 600 rpm for 10 to 20 seconds so as to achieve a photochromic coating layer with a thickness of 40 µm.
The lens of which surface had been coated with the photochromic curable composition (photochromic coating layer) was irradiated with light for 90 seconds in a nitrogen gas atmosphere using a metal halide lamp with an output of 200 mW/cm^2 to cure the coating. The resultant was then further heated at 110°C for 1 hour to produce a photochromic laminate with a photochromic layer.
Photochromic laminates were produced using the photochromic compounds obtained in Examples 2 to 20 in the same manner as in Example 21.
Photochromic laminates were obtained using photochromic compounds represented by Formulae (A) to (D) below in the same manner as in Example 21. [drawing 89] [drawing 90] [drawing 91] [drawing 92] [drawing 93]
as §1, with “Residual ratio (A96/A0 x 100): The resulting photochromic plastic lens was subjected to accelerated degradation for 96 hours using a xenon weather meter X25 manufactured by Suga Test Instruments Co., Ltd. Color developing densities were then evaluated before and after a test, and a color developing density before the test (A0) and a color developing density after the test (A96) were measured. A ratio (A96/A0) was determined as a residual ratio and was used as an index of color development durability. The higher the residual ratio is, the more durable the color development is.” left out

[4] = Solubility of photochromic compound in polymerizable compounds; parameters: key: 1: No haze is seen when checked under transmission of light, and the sample is completely dissolved.; 2: A very thin haze is seen to the extent that it can be seen under transmission of light.; 3: A thin haze that can be seen under transmission of light is seen.; 4: A haze can be seen even without transmission of light; settings: 35 µmol/g in radical polymerizable compound composition of Example 21, 65 to 70°C; for Dissolution for 15 min / Dissolution for 30 min / Dissolution for 45 min: stirring and ultrasonic irradiation; for Dissolution for 1 hour: head reads 60 min in Tables 8 to 14
Description: The photochromic compounds according to Examples and Comparative examples shown in Table 5 were evaluated for solubility in polymerizable compounds.
Specifically, a sample was prepared by adding each of the photochromic compounds to the composition, which consisted of a radical polymerizable compound, among the curable compositions used in Example 21.
Note that, this test was performed using "YOKAI-KUN USS-1" manufactured by NIHONSEIKI KAISHA LTD. under the following conditions: • Dissolution temperature: 65 to 70°C • Stirring condition: Stirring dial of 5. Ultrasonic irradiation condition: Irradiation interval of 3 sec.
Dissolution was checked every 15 minutes up to 1 hour later, the sample was visually checked by transmitting light through the sample, and a degree of dissolution was evaluated according to the following four evaluation criteria.
• 1: No haze is seen when checked under transmission of light, and the sample is completely dissolved. • 2: A very thin haze is seen to the extent that it can be seen under transmission of light. • 3: A thin haze that can be seen under transmission of light is seen. • 4: A haze can be seen even without transmission of light.
A shorter time required for the evaluation result to be 1 means higher solubility.

Residual ratio [1]	Color developing density at 23°C [1]	Residual ratio [2]	Color developing density at 23°C [2]	Color fading half-life at 23°C [3]	Residual ratio [3]	Dissolution for 15 min [4]	Dissolution for 30 min [4]	Dissolution for 45 min [4]	Dissolution for 1 hour [4]	SMILES
80% and 81%	1.33 - and 0.84 -									CCCCC1(C)c2cc(-c3ccc(C)cc3)ccc2-c2c1c1c(c3cc(OC)c(OC)cc23)OC(c2ccc(OC)cc2)(c2ccc(OC)cc2)C=C1 (centres unmarked) [Formula (5-6)]
92% and 91%	1.21 - and 1.03 -				69% 69%					CCCCCCC1(CC)c2cc(-c3ccc(OC(C)C)cc3)ccc2-c2c1c1c(c3cc(OC)c(-c4ccc(OC(C)C)cc4)cc23)OC(c2ccc(OC)cc2)(c2ccc(OCCC)cc2)C=C1 (centres unmarked) [Formula (11-1)]
68% and 70%	1.68 - and 0.84 -	58% and 59%								CCCCC1(CC)c2cc(-c3ccc(C(C)(C)C)cc3)ccc2-c2c1c1c(c3cc(OC)c(N4CCCCC4)cc23)OC(c2ccc(OC)cc2)(c2ccc(OC)cc2)C=C1 (centres unmarked) [Formula (17-2)]

More lines, now with the values behind:

SMILES	Residual ratio [1]	Color developing density at 23°C [1]	Residual ratio [2]	Color developing density at 23°C [2]	Color fading half-life at 23°C [3]	Residual ratio [3]	Dissolution for 15 min [4]	Dissolution for 30 min [4]	Dissolution for 45 min [4]	Dissolution for 1 hour [4]
CCCC1(C)c2cc(C)ccc2-c2c1c1c(c3cc(C)ccc23)OC(c2ccc(C)cc2)(c2ccc(OC)cc2)C=C1 (centres unmarked) [Formula (1-5)]	82%	0.65 - and 1.11 -	71%	0.66 - and 1.10 -	2.28 min	62%				
CCCCCCC1(CC)c2ccccc2-c2c1c1c(c3cc(OC)ccc23)OC(c2ccc(C)cc2)(c2ccc(N(C)c3ccccc3)cc2)C=C1 (centres unmarked) [Formula (7-4)]			67% and 66%	0.63 - and 1.13 -		60%				
CCCCCC1(CCC)c2cc(N(c3ccccc3)c3ccccc3)ccc2-c2c1c1c(c3cc(OC)ccc23)OC(c2ccc(OC)cc2)(c2ccc(OC)cc2)C=C1 (centres unmarked) [Formula (8-3)]			72% and 71%	1.07 - and 0.96 -	1.67 min					
CCCCC1(CCC)c2cc(C)ccc2-c2c1c1c(c3cc(OC)c(-c4ccc(N5CCOCC5)cc4)cc23)OC(c2ccc(OC)cc2)(c2ccc(N3CCOCC3)cc2)C=C1 (centres unmarked) [Formula (10-1)]			70% and 69%	1.10 - and 1.07 -	1.42 min		3	2	1	1
CCCC1(CC)c2cc(C)ccc2-c2c1c1c(c3cc(C)c(-c4ccc(OC)cc4)cc23)OC(c2ccc(OC)cc2)(c2ccc(N(c3ccccc3)c3ccccc3)cc2)C=C1 (centres unmarked) [Formula (12-2)]			66% and 65%	0.64 - and 1.23 -						
CCCCCC1(CC)c2cc(OC(F)(F)F)ccc2-c2c1c1c(c3cc(OC)ccc23)OC(c2ccc(OC)cc2)(c2ccc(OC)cc2)C=C1 (centres unmarked) [Formula (15-1)]	90% and 91%	0.61 - and 0.73 -					3	2	1	1
